Experimental data: patent US11279703B2, “Fused pyrimidine compounds as BRD4 and JAK2 dual inhibitors and methods for use thereof” (APTOSE BIOSCIENCES INC., priority 2016, dated 2022)
Like-named read-outs stand apart in the source and are kept apart here.

Target: BRD4-BD1 (Homo sapiens (Human), UniProt O60885)
Assay: AlphaLisa bromodomain binding assay, BRD4-BD1
Text: An AlphaLisa assay was used to observe bromodomain binding and measure IC50s for the compounds disclosed herein. An AlphaLisa assay is a bead-based assay used to detect interactions between bromodomains and polyacetylated histone peptides. Donor and acceptor beads bound to target and ligand are brought into proximity by this protein-protein interaction.
Equipment Required • 1. […] Plate centrifuge • 3. Plate shaker • 4. […] Single channel and multi-channel pipettes • 6. Microplate reader (Pherastar)
Stock and Final Assay Concentrations (FAC) • 1. All reference and test compounds are made at a concentration of 10 mM in DMSO. Compounds are serially diluted in DMSO and a FAC starting from 10 μM to 10 point 3 fold serial dilutions is arrived. FAC of DMSO is 1%. • 2. Enzyme stock and FAC
Biotinylated substrate (Acetylated histone H4, biotinylated substrate—cat no. AS64989-025, Anaspec) stock and FAC
• 4. Acceptor and donor beads stock and FAC
Buffers • For the enzyme and substrate dilution following buffer is used (for 50 ml) • HEPES: 50 mM 2.5 ml • NaCl: 25 mM 1.25 ml • DTT: 10 mM 0.05 ml • BSA: 0.1% 0.05 g • MilliQ water: 45.7 ml • For dilution of acceptor and donor beads AlphaLISA 5× epigenetics Buffer Perkin Elmer (Cat: AL008C) is used at 1× concentration.
Procedure • 1. […] Tap the plate gently • 3. […] Cover with plate sealer • 5. […] Incubate the plate at room temperature for 10 minutes • 7. Add 10 μl of the substrate • 8. Cover with plate sealer • 9. […] Cover with plate sealer • 14. […] Cover with plate sealer • 18.
The percent inhibition is calculated in the excel analysis template and the IC50 values are subsequently determined using a sigmoidal dose-response curve (variable slope) using GraphPad Prism® 5 software.

[1] = Table 6, read-out: BRD4(1) IC50

Cc1noc(C)c1-c1ccc2nc(N)sc2c1
IC50 [1]: 4.89 µM

CNCCNc1ncc2cc(-c3cccc(-c4c(C)noc4C)c3)ccc2n1
IC50 [1]: 1.1 µM

CN1CCC(Nc2nc3c(c(Nc4cccc(NS(=O)(=O)C(C)(C)C)c4)n2)COC3)CC1
IC50 [1]: 2.32 µM

CN1CCN(c2ccc(Nc3nc(Nc4cccc(NS(=O)(=O)C(C)(C)C)c4)c4ccsc4n3)cc2)CC1 [drawing 52]
IC50 (Table 2, read-out: BRD4 IC50): 0.388 µM

CNCCCOc1ccc(Nc2ncc3ccn(-c4cccc(NS(=O)(=O)C(C)(C)C)c4)c3n2)cc1F [drawing 466]
IC50 [1]: 0.2 µM

CC1(C)CN(Cc2ccccc2)CCC1Nc1nc(Nc2cccc(NS(=O)(=O)C(C)(C)C)c2)c2ccsc2n1 (centres unmarked)
IC50 [1]: 7.5 µM

CN1CCN2c3c(F)cc(Nc4ncc5scc(-c6cccc(NS(=O)(=O)C(C)(C)C)c6)c5n4)cc3CC2C1 (centres unmarked)
IC50 [1]: 1.8 µM

Cc1cnc(Nc2ccc(N3CCN(C)CC3)c(F)c2)nc1Nc1ccc2c(c1)N(S(=O)(=O)C(C)(C)C)CC2 [drawing 235]
IC50 [1]: 0.155 µM

CC(C)(C)S(=O)(=O)N1CCc2ccc(Nc3nc(Nc4cccnc4)nc4c3COC4)cc21
IC50 [1]: 3.61 µM

COc1ccc(Nc2ncc(-n3ccc4c3CCNC4=O)cn2)cc1
IC50 [1]: 9.74 µM

CC(C)(C)S(=O)(=O)N1CCc2ccc(Nc3nc(NCC4CCNCC4)nc4sccc34)cc21 [drawing 218]
IC50 [1]: 2.17 µM

CN1CCC(Nc2nc(Nc3cccc(NS(=O)(=O)C(C)(C)C)c3)c3ccsc3n2)CC1
IC50 [1]: 0.376 µM

CC(C)(C)S(=O)(=O)Nc1cccc(Nc2nc(NC3CCNCC3)nc3ccsc23)c1
IC50 [1]: 0.608 µM

CC(C)(C)S(=O)(=O)Nc1cccc(Nc2nc(NC3CCNCC3)nc3sccc23)c1 [drawing 51]
IC50 (Table 2, read-out: BRD4 IC50): 0.094 µM

CNCCNc1ncc2c(-c3cccc(-c4c(C)noc4C)c3)c[nH]c2n1
IC50 [1]: 3.23 µM

CC(C)(C)S(=O)(=O)Nc1cc(-n2ccc3cnc(Nc4ccc(N5CCNCC5)c(F)c4)nc32)ccc1F [drawing 50]
IC50 (Table 1, read-out: BRD4 IC50): 0.006 µM

CC(C)(C)S(=O)(=O)Nc1ccc(Nc2nc(NC3CCNCC3)nc3sccc23)cc1
IC50 [1]: 7.4 µM

CN1CCN(c2ccc(Nc3nc(Nc4ccc5c(c4)N(S(=O)(=O)C(C)(C)C)CC5)c4ccsc4n3)cc2)CC1
IC50 [1]: 4.56 µM

CN1CCN(c2ccc(Nc3nc4c(c(Nc5cccc(NS(=O)(=O)C(C)(C)C)c5)n3)CCNC4)cc2)CC1
IC50 [1]: 3.2 µM

CC(C)(C)S(=O)(=O)N1CCc2ccc(Nc3nc(NC4CCNC4)nc4sccc34)cc21 (centres unmarked) [drawing 217]
IC50 [1]: 2.75 µM

CN1CCC(Nc2nc(Nc3ccc(Cl)c(NS(=O)(=O)C(C)(C)C)c3)c3ccsc3n2)CC1
IC50 [1]: 0.18 µM

CN1CCC(Nc2nc(-n3ccc(C(=O)NC4CC4)c3)c3ccsc3n2)CC1 [drawing 230]
IC50 [1]: 2.2 µM

CC(C)(C)S(=O)(=O)Nc1cc(-n2ccc3cnc(Nc4ccc(N5CCNCC5)cc4)nc32)ccc1F
IC50 [1]: 0.208 µM

CN1CCC(NC(=O)c2ccc(Nc3ncc4ccn(-c5cccc(NS(=O)(=O)C(C)(C)C)c5)c4n3)cc2)CC1
IC50 [1]: 0.407 µM

CC(C)(C)S(=O)(=O)Nc1cccc(Nc2nc(NCC3CCNCC3)nc3sccc23)c1 [drawing 220]
IC50 [1]: 2.67 µM

CC(C)(C)S(=O)(=O)N1CCc2ccc(Nc3nc(NC4CCOC4)nc4sccc34)cc21 (centres unmarked)
IC50 (Table 2, read-out: BRD4 IC50): 3.2 µM

COc1cc(Nc2ncc3ccn(-c4ccc(F)c(NS(=O)(=O)C5CC5)c4)c3n2)ccc1N1CCN(C)CC1
IC50 [1]: 0.989 µM

Cc1cnc(NC2CCN(C)CC2)nc1Nc1cccc(NS(=O)(=O)C(C)(C)C)c1
IC50 [1]: 1.34 µM

CN1CCC(Nc2nc(Nc3ccc4c(c3)N(S(=O)(=O)C(C)(C)C)CC4)c3ccsc3n2)CC1 [drawing 55]
IC50 (Table 2, read-out: BRD4 IC50): 0.16 µM

CN1CCC(NC(=O)c2ccc(Nc3ncc4ccn(-c5ccc(F)c(NS(=O)(=O)C(C)(C)C)c5)c4n3)cc2F)CC1 [drawing 47]
IC50 (Table 1, read-out: BRD4 IC50): 0.094 µM

CC(C)(C)S(=O)(=O)Nc1cccc(Nc2nc(NCC3CCNCC3)nc3sccc23)c1 [drawing 53]
IC50 (Table 2, read-out: BRD4 IC50): 1.2 µM

CN(C)C1CCN(c2ccc(Nc3ncc4ccn(-c5ccc(F)c(NS(=O)(=O)C(C)(C)C)c5)c4n3)cc2F)CC1 [drawing 48]
IC50 (Table 1, read-out: BRD4 IC50): 0.063 µM

CC(C)(C)S(=O)(=O)Nc1cccc(Nc2nc(NC3CCNCC3)nc3sccc23)c1 [drawing 237]
IC50 [1]: 0.194 µM

O=C1NCCc2c1ccn2-c1cnc(Nc2ccc(F)cc2)nc1
IC50 [1]: 11.2 µM

CN1CCN(c2ccc(Nc3ncc4ccn(-c5cccc(NS(=O)(=O)C(C)(C)C)c5)c4n3)cc2)CC1 [drawing 73]
IC50 (Table 5, read-out: BRD4 IC50): 0.22 µM

O=C1NCCc2c1ccn2-c1cnc(Nc2ccccc2)nc1
IC50 [1]: 1.78 µM

CC(C)(C)S(=O)(=O)Nc1cccc(Nc2nc(NC3CCNCC3)nc3sccc23)c1 [drawing 49]
IC50 (Table 1, read-out: BRD4 IC50): 0.094 µM

CN1CCN(c2ccc(Nc3nc4c(c(Nc5cccc(NS(=O)(=O)C(C)(C)C)c5)n3)COC4)cc2)CC1 [drawing 188]
IC50 [1]: 0.526 µM

CC1=NCC(C)=C1C1CCCC(c2c[nH]c3nc(N4CCNCC4)ncc23)C1 (centres unmarked)
IC50 [1]: 4.06 µM

CC(C)(C)S(=O)(=O)Nc1cccc(Nc2nc(NC3CCNC3)nc3sccc23)c1 (centres unmarked) [drawing 222]
IC50 [1]: 2.38 µM

Cc1ccc(Nc2nc(NC3CCNCC3)nc3sccc23)cc1NS(=O)(=O)C(C)(C)C
IC50 [1]: 0.318 µM

Cc1noc(C)c1-c1cccc(-c2cn(C)c3nc(NC4CCNCC4)ncc23)c1
IC50 [1]: 4.4 µM

CC(C)(C)S(=O)(=O)N1CCc2ccc(Nc3nc(NC4CCNCC4)nc4sccc34)cc21
IC50 [1]: 0.64 µM

CC(C)(C)S(=O)(=O)Nc1cccc(-n2ccc3cnc(Nc4ccc5c(c4)CCN4CCNCC54)nc32)c1 (centres unmarked)
IC50 [1]: 0.75 µM

CC(C)(C)S(=O)(=O)N1CCc2ccc(Nc3nc(NC4CCNC4)nc4sccc34)cc21 (centres unmarked) [drawing 58]
IC50 (Table 2, read-out: BRD4 IC50): 2.6 µM

Cc1ccc(Nc2nc(NC3CCN(C)CC3)nc3sccc23)cc1NS(=O)(=O)C(C)(C)C
IC50 [1]: 0.206 µM

CC(C)(C)S(=O)(=O)N1CCc2ccc(Nc3nc(NCC4CCNCC4)nc4sccc34)cc21 [drawing 56]
IC50 (Table 2, read-out: BRD4 IC50): 1 µM

O=C(NC1CC1)c1ccn(-c2nc(NC3CCNCC3)nc3sccc23)c1 [drawing 60]
IC50 (Table 2, read-out: BRD4 IC50): 0.399 µM

CC(C)(C)S(=O)(=O)Nc1cccc(Nc2nc(NC3CCNCC3)nc3sccc23)c1 [drawing 159]
IC50 [1]: 0.344 µM

CN1CCC(c2ccc(Nc3ncc4ccn(-c5cccc(NS(=O)(=O)C(C)(C)C)c5)c4n3)cc2)CC1
IC50 [1]: 0.581 µM

CNc1ncc2c(-c3cccc(-c4c(C)noc4C)c3)c[nH]c2n1
IC50 [1]: 10 µM

CC(C)(C)S(=O)(=O)Nc1cccc(Nc2nc(NC3CCNCC3)nc3sccc23)c1 [drawing 151]
IC50 [1]: 0.094 µM

CN1CCN(c2ccc(Nc3ncc4ccn(-c5ccc(Cl)c(NS(=O)(=O)C6CC6)c5)c4n3)cc2)CC1
IC50 [1]: 1.7 µM

CNCCCOc1ccc(Nc2ncc3ccn(-c4cccc(NS(=O)(=O)C(C)(C)C)c4)c3n2)cc1F [drawing 448]
IC50 [1]: 0.337 µM

CN1CCN(c2cccc(Nc3nc(Nc4cccc(NS(=O)(=O)C(C)(C)C)c4)c4ccsc4n3)c2)CC1
IC50 [1]: 5.02 µM

CN1CCN(c2ccc(Nc3nc4c(c(Nc5ccc6c(c5)N(S(=O)(=O)C(C)(C)C)CC6)n3)COC4)cc2)CC1
IC50 [1]: 2.39 µM

CC(C)(C)S(=O)(=O)N1CCc2ccc(Nc3nc(NC4CCNCC4)nc4c3COC4)cc21
IC50 [1]: 1.58 µM

CNCCNc1ncc2c(-c3cccc(-c4c(C)noc4C)c3)cn(C)c2n1
IC50 [1]: 7.5 µM

O=C(NC1CC1)c1ccn(-c2nc(NC3CCNCC3)nc3sccc23)c1 [drawing 229]
IC50 [1]: 1.83 µM

CN1CCC(Nc2nc(-n3ccc(C(=O)NC4CC4)c3)c3ccsc3n2)CC1 [drawing 59]
IC50 (Table 2, read-out: BRD4 IC50): 0.45 µM

Cc1noc(C)c1-c1cccc(-c2c[nH]c3nc(N4CCN(C)CC4)ncc23)c1
IC50 [1]: 7.19 µM

CN1CCN(c2ccc(Nc3nc(Nc4cccc(NS(=O)(=O)C(C)(C)C)c4)c4ccsc4n3)cc2)CC1 [drawing 153]
IC50 [1]: 0.609 µM

CN1CCN(c2ccc(Nc3ncc4ccn(-c5cccc(NS(=O)(=O)C(C)(C)C)c5)c4n3)cc2)CC1 [drawing 288]
IC50 [1]: 5.01 µM

CN1CCN(c2ccc(Nc3ncc4ccn(-c5cccc(NS(=O)(=O)C(C)(C)C)c5)c4n3)cc2)CC1 [drawing 275]
IC50 [1]: 0.242 µM

CN1CCC(Nc2nc(Nc3ccc4c(c3)N(S(=O)(=O)C(C)(C)C)CC4)c3sccc3n2)CC1
IC50 [1]: 2.11 µM

CN1CCC(Nc2nc(Nc3ccc4c(c3)N(S(=O)(=O)C(C)(C)C)CC4)c3ccsc3n2)CC1 [drawing 185]
IC50 [1]: 0.22 µM

Cc1cnc(Nc2ccc(N3CCN(C)CC3)cc2)cc1Nc1cccc(NS(=O)(=O)C(C)(C)C)c1
IC50 [1]: 6.31 µM

CC(C)(C)S(=O)(=O)Nc1cccc(Nc2nc(NC3CCNC3)nc3sccc23)c1 (centres unmarked) [drawing 54]
IC50 (Table 2, read-out: BRD4 IC50): 1.7 µM
